Target: T1, GST-tagged truncated human mutant G2019S LRRK2 (Homo sapiens, UniProt Q5S007, G2019S)
T1 construct: GST-tagged truncated human mutant G2019S LRRK2; purchased Life Technologies Corporation (Carlsbad, CA)
Assay: LRRK2 G2019S Km ATP LanthaScreen assay
Format: biochemical
Conditions: 134 μM ATP (Km ATP), LRRKtide substrate, mean of several tests, read-out: LRRK2 pIC50 (converted)
In short: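 GST-tagged truncated human LRRK2 G2019S (1.25 nM enzyme solution) was preincubated 15 min with compound, then reacted 90 min at ambient temperature with fluorescein-LRRKtide (400 nM solution) and 134 μM ATP (Km) in Tris pH 8.5. EDTA stop; Tb anti-phospho-LRRKtide TR-FRET (520/495 ratio). IC50 from 4-parameter fits, mean of several runs.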

T1 sequence (Q5S007 970-2527 G2019S limits assumed): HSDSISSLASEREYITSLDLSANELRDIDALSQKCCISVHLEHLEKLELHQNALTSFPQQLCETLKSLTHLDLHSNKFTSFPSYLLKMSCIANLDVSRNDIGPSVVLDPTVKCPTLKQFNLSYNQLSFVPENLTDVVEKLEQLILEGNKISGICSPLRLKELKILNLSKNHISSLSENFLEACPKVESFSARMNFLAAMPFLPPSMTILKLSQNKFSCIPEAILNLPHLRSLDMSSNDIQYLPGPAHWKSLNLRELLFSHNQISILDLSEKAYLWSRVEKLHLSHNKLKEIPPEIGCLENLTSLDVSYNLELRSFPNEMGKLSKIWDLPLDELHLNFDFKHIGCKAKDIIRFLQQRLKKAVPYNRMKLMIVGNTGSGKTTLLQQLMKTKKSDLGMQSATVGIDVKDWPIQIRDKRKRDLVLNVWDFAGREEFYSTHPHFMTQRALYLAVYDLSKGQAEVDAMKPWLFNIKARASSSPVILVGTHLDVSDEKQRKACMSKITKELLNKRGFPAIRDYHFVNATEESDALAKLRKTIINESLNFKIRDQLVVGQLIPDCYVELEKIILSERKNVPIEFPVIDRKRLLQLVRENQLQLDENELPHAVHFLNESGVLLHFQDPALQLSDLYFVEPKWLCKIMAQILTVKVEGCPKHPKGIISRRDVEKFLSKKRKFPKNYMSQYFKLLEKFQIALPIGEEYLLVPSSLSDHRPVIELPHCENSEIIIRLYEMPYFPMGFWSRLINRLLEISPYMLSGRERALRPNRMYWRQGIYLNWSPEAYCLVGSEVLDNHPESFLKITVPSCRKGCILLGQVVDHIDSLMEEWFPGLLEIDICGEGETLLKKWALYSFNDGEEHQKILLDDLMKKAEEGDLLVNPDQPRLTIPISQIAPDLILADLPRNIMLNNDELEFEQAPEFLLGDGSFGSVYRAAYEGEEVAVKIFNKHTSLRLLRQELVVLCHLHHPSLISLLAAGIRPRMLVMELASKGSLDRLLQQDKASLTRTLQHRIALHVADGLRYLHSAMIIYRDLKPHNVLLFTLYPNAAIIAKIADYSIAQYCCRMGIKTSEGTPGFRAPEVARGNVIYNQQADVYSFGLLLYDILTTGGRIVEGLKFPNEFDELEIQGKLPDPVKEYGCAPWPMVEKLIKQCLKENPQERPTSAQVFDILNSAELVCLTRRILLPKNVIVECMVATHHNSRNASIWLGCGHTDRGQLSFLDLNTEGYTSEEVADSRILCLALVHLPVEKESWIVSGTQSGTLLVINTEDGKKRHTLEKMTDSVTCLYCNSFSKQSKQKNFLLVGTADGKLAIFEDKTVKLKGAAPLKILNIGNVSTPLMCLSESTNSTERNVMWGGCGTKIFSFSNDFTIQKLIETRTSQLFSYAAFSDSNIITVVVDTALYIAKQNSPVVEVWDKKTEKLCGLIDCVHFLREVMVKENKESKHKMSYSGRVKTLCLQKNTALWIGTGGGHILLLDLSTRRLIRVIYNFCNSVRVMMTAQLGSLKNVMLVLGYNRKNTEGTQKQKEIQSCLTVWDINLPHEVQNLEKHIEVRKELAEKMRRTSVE

| Structure (SMILES) | IC50 [nM] |
| --- | --- |
| COC1COCC1N1CCN(c2cc3cc(NC(=O)C4CC45CCOCC5)ncc3cc2Cl)CC1 (single isomer, unassigned) [Ex-5.9] | 1510 |
| COC1COCC1N1CCN(c2cc3cc(NC(=O)C4CC45CCOCC5)ncc3cc2Cl)CC1 (single isomer, unassigned) [Ex-5.10] | 38 |
| CC1(N2CCN(c3cc4cc(NC(=O)C5CC56CCOCC6)ncc4cc3Cl)CC2)CCOC1 (single isomer, unassigned) [Ex-5.11] | 2.45 |
| CC1(N2CCN(c3cc4cc(NC(=O)C5CC56CCOCC6)ncc4cc3Cl)CC2)CCOC1 (single isomer, unassigned) [Ex-5.12] | 126 |
| CC1(N2CCN(c3cc4cc(NC(=O)C5CC56CCOCC6)ncc4cc3Cl)CC2)CCOC1 (single isomer, unassigned) [Ex-5.13] | 83.2 |
| CC1(N2CCN(c3cc4cc(NC(=O)C5CC56CCOCC6)ncc4cc3Cl)CC2)CCOC1 (single isomer, unassigned) [Ex-5.14] | 302 |
| CC1(C#N)CCN(c2cc3cc(NC(=O)C4CC4c4cncnc4)ncc3cc2Cl)CC1 (single isomer, unassigned) [Ex-5.15] | 6.17 |
| CC1(C#N)CCN(c2cc3cc(NC(=O)C4CC4c4cncnc4)ncc3cc2Cl)CC1 (single isomer, unassigned) [Ex-5.16] | 427 |
| N#CC1CCN(c2cc3cc(NC(=O)C4CC4c4cncnc4)ncc3cc2Cl)CC1 (single isomer, unassigned) [Ex-5.17] | 0.0813 |
| N#CC1CCN(c2cc3cc(NC(=O)C4CC4c4cncnc4)ncc3cc2Cl)CC1 (single isomer, unassigned) [Ex-5.18] | 67.6 |
| N#CC1(F)CCN(c2cc3cc(NC(=O)C4CC4c4cncnc4)ncc3cc2Cl)CC1 (single isomer, unassigned) [Ex-5.19] | 117 |
| N#CC1(F)CCN(c2cc3cc(NC(=O)C4CC4c4cncnc4)ncc3cc2Cl)CC1 (single isomer, unassigned) [Ex-5.20] | 9.12 |
| Cc1cc2cnc(NC(=O)C3CC34CCOCC4)cc2cc1N1CCN(C2(C)COCC2O)CC1 (single isomer, unassigned) [Ex-6.1] | 0.355 |
| Cc1cc2cnc(NC(=O)C3CC34CCOC4)cc2cc1N1CCN(C2(C)COCC2O)CC1 (single isomer, unassigned) [Ex-6.2, (1R, 3S or 1S,3R, or 1R,3S, or 1S,3S)-N-(6-(4-((3R, 4R or 3S,4S)-4-hydroxy-3-methyltetrahydrofuran-3-yl)piperazin-1-yl)-7-methylisoquinolin-3-yl)-5-oxaspiro[2.4]heptane-1-carboxamide] | 1.38 |
| Cc1cc2cnc(NC(=O)C3CC34CCOC4)cc2cc1N1CCN(C2(C)COCC2O)CC1 (single isomer, unassigned) [Ex-6.3, (1R, 3S or 1S,3R, or 1R,3S, or 1S,3S)-N-(6-(4-((3R, 4R or 3S,4S)-4-hydroxy-3-methyltetrahydrofuran-3-yl)piperazin-1-yl)-7-methylisoquinolin-3-yl)-5-oxaspiro[2.4]heptane-1-carboxamide] | 0.832 |
| Cc1cc2cnc(NC(=O)C3CC34CCOC4)cc2cc1N1CCN(C2(C)COCC2O)CC1 (single isomer, unassigned) [Ex-6.4, (1R, 3S or 1S,3R, or 1R,3S, or 1S,3S)-N-(6-(4-((3R, 4R or 3S,4S)-4-hydroxy-3-methyltetrahydrofuran-3-yl)piperazin-1-yl)-7-methylisoquinolin-3-yl)-5-oxaspiro[2.4]heptane-1-carboxamide] | 1.07 |

| Structure (SMILES) | IC50 [nM] |
| --- | --- |
| Cc1cc2cnc(NC(=O)C3CC34CCOC4)cc2cc1N1CCN(C2(C)COCC2O)CC1 (single isomer, unassigned) [Ex-6.5, (1R, 3S or 1S,3R, or 1R,3S, or 1S,3S)-N-(6-(4-((3R, 4R or 3S,4S)-4-hydroxy-3-methyltetrahydrofuran-3-yl)piperazin-1-yl)-7-methylisoquinolin-3-yl)-5-oxaspiro[2.4]heptane-1-carboxamide] | 1.05 |
| Cc1cc2cnc(NC(=O)C3CC34CCOC4)cc2cc1N1CCN(C2(C)COCC2O)CC1 (single isomer, unassigned) [Ex-6.6, (1R, 3S or 1S,3R, or 1R,3S, or 1S,3S)-N-(6-(4-((3R, 4R or 3S,4S)-4-hydroxy-3-methyltetrahydrofuran-3-yl)piperazin-1-yl)-7-methylisoquinolin-3-yl)-5-oxaspiro[2.4]heptane-1-carboxamide] | 45.7 |
| Cc1cc2cnc(NC(=O)C3CC34CCOC4)cc2cc1N1CCN(C2(C)COCC2O)CC1 (single isomer, unassigned) [Ex-6.7, (1R, 3S or 1S,3R, or 1R,3S, or 1S,3S)-N-(6-(4-((3R, 4R or 3S,4S)-4-hydroxy-3-methyltetrahydrofuran-3-yl)piperazin-1-yl)-7-methylisoquinolin-3-yl)-5-oxaspiro[2.4]heptane-1-carboxamide] | 126 |
| Cc1cc2cnc(NC(=O)C3CC34CCOC4)cc2cc1N1CCN(C2(C)COCC2O)CC1 (single isomer, unassigned) [Ex-6.8, (1R, 3S or 1S,3R, or 1R,3S, or 1S,3S)-N-(6-(4-((3R, 4R or 3S,4S)-4-hydroxy-3-methyltetrahydrofuran-3-yl)piperazin-1-yl)-7-methylisoquinolin-3-yl)-5-oxaspiro[2.4]heptane-1-carboxamide] | 631 |
| Cc1cc2cnc(NC(=O)C3CC34CCOC4)cc2cc1N1CCN(C2(C)COCC2O)CC1 (single isomer, unassigned) [Ex-6.9, (1R, 3S or 1S,3R, or 1R,3S, or 1S,3S)-N-(6-(4-((3R, 4R or 3S,4S)-4-hydroxy-3-methyltetrahydrofuran-3-yl)piperazin-1-yl)-7-methylisoquinolin-3-yl)-5-oxaspiro[2.4]heptane-1-carboxamide] | 324 |
| Cc1cc2cnc(NC(=O)C3CC3c3ccccn3)cc2cc1N1CCN(C2(C)COCC2F)CC1 (single isomer, unassigned) [Ex-6.13] | 0.0813 |
| Cc1cc2cnc(NC(=O)C3CC3c3ccccn3)cc2cc1N1CCN(C2(C)COCC2F)CC1 (single isomer, unassigned) [Ex-6.14] | 0.148 |
| COC1CC(C(=O)Nc2cc3cc(N4CCN(C5(C)COCC5O)CC4)c(Cl)cc3cn2)C1 (single isomer, unassigned) [Ex-7.1] | 0.832 |
| COC1CC(C(=O)Nc2cc3cc(N4CCN(C5(C)COCC5O)CC4)c(Cl)cc3cn2)C1 (single isomer, unassigned) [Ex-7.2] | 0.977 |
| CC1(C)CC2(CCO1)CC2C(=O)Nc1cc2cc(N3CCN(C4(C)COCC4O)CC3)c(Cl)cc2cn1 (single isomer, unassigned) [Ex-7.3] | 3.72 |
| CC1(C)CC2(CCO1)CC2C(=O)Nc1cc2cc(N3CCN(C4(C)COCC4O)CC3)c(Cl)cc2cn1 (single isomer, unassigned) [Ex-7.4] | 0.776 |
| CC1(C)CC2(CCO1)CC2C(=O)Nc1cc2cc(N3CCN(C4(C)COCC4O)CC3)c(Cl)cc2cn1 (single isomer, unassigned) [Ex-7.5] | 0.155 |
| CC1C(C(=O)Nc2cc3cc(N4CCN(C5(C)CCOC5)CC4)c(Cl)cc3cn2)C1c1cnn(C)c1 (single isomer, unassigned) [Ex-9.7] | 0.0813 |
| CC1C(C(=O)Nc2cc3cc(N4CCN(C5(C)CCOC5)CC4)c(Cl)cc3cn2)C1c1cnn(C)c1 (single isomer, unassigned) [Ex-9.8] | 4.9 |
| CC1C(C(=O)Nc2cc3cc(N4CCN(C5(C)CCOC5)CC4)c(Cl)cc3cn2)C1c1cnn(C)c1 (single isomer, unassigned) [Ex-9.9] | 0.417 |

From patent US12516039B2, “N-linked isoquinoline amides as LRRK2 inhibitors, pharmaceutical compositions, and uses thereof” (Merck Sharp & Dohme LLC, priority 2020, dated 2026)
